Measured values from ChEMBL document CHEMBL5104180, “Design, Synthesis, and Evaluation of New Sugar-Substituted Imidazole Derivatives as Selective c-MYC Transcription Repressors Targeting the Promoter G-Quadruplex” (J Med Chem, 2022).

How the values were obtained:
[1] = Binding affinity to human G-rich Htg22 DNA assessed as binding constant by SPR analysis
[2] = biological target: Quadruplex DNA; experiment: Binding affinity to c-MYC G4 quadruplex DNA Pu22 (unknown origin) assessed as binding constant by SPR analysis; type: nucleic-acid assay
[3] = biological target: RNA; experiment: Binding affinity to NRAS RNA mutant (unknown origin) assessed as binding constant by SPR analysis
[4] = biological target: Quadruplex DNA; experiment: Binding affinity to c-MYC G4- quadruplex DNA Pu22 (unknown origin) assessed as binding constant by SPR analysis; type: nucleic-acid assay
[5] = system: Quadruplex DNA; experiment: Stabilization of c-MYC G4 quadruplex DNA Pu22 (unknown origin) assessed as change in melting temperature at 2 uM by CD spectroscopy; type: nucleic-acid assay
[6] = Binding affinity to G-rich NRAS RNA (unknown origin) assessed as binding constant by SPR analysis
[7] = Binding affinity to G-rich HRAS DNA (unknown origin) assessed as binding constant by SPR analysis
[8] = Binding affinity to Hairpin DNA (unknown origin) assessed as binding constant by SPR analysis
[9] = Binding affinity to G-rich KRAS DNA (unknown origin) assessed as binding constant by SPR analysis

CCn1c2ccccc2c2cc(-c3nc(-c4ccc(N5CCN(C)CC5)cc4)c(-c4ccc(N5CCN(Cc6cn(CCOCCO)nn6)CC5)cc4)[nH]3)ccc21
Kd [1]: > 20 µM | Kd [2]: > 20 µM | Kd [3]: > 20 µM | Kd [4]: 1200 nM | ΔTm [5]: 18.7 °C | Kd [6]: 14.5 µM | Kd [7]: 2.8 µM | Kd [8]: > 20 µM | Kd [9]: 5.6 µM

CCn1c2ccccc2c2cc(-c3nc(-c4ccc(N5CCN(C)CC5)cc4)c(-c4ccc(N5CCN(C)CC5)cc4)n3-c3ccc(O[C@@H]4O[C@H](CO)[C@@H](O)[C@H](O)[C@H]4O)cc3)ccc21
Kd [1]: > 20 µM | Kd [2]: > 20 µM | Kd [3]: > 20 µM | Kd [4]: 1800 nM | ΔTm [5]: 15.5 °C | Kd [6]: 16.9 µM | Kd [7]: 6.8 µM | Kd [8]: > 20 µM | Kd [9]: 12.5 µM

CCn1c2ccccc2c2cc(-c3nc(-c4ccc(N5CCN(C)CC5)cc4)c(-c4ccc(N5CCN(C)CC5)cc4)n3-c3ccc(OCCOCCOC(C)=O)cc3)ccc21
Kd [1]: > 20 µM | Kd [2]: > 20 µM | Kd [3]: > 20 µM | Kd [4]: 4000 nM | ΔTm [5]: 21.2 °C | Kd [6]: > 20 µM | Kd [7]: 19.1 µM | Kd [8]: > 20 µM | Kd [9]: 10.2 µM

CCn1c2ccccc2c2cc(-c3nc(-c4ccc(N5CCN(C)CC5)cc4)c(-c4ccc(N5CCN(C)CC5)cc4)n3-c3ccc(O)cc3)ccc21
ΔTm [5]: 14.5 °C

CCn1c2ccccc2c2cc(-c3nc(-c4ccc(N5CCN(C)CC5)cc4)c(-c4ccc(N5CCN(C)CC5)cc4)n3-c3ccc(OCCCO)cc3)ccc21
ΔTm [5]: 9.2 °C

CCn1c2ccccc2c2cc(-c3nc(-c4ccc(N5CCN(C)CC5)cc4)c(-c4ccc(N5CCN(C)CC5)cc4)n3-c3ccc(OCCCOC(C)=O)cc3)ccc21
ΔTm [5]: 6.8 °C

CCn1c2ccccc2c2cc(-c3nc(-c4ccc(N5CCN(C)CC5)cc4)c(-c4ccc(N5CCN(C)CC5)cc4)n3-c3ccc(OCc4ccccc4)cc3)ccc21
ΔTm [5]: 7.6 °C

CCn1c2ccccc2c2cc(-c3nc(-c4ccc(N5CCN(C)CC5)cc4)c(-c4ccc(N5CCN(C)CC5)cc4)n3CCOC(C)=O)ccc21
ΔTm [5]: 11.1 °C

CCn1c2ccccc2c2cc(-c3nc(-c4ccc(N5CCN(C)CC5)cc4)c(-c4ccc(N5CCN(C)CC5)cc4)n3CCOCCO)ccc21
ΔTm [5]: 11.6 °C

CCn1c2ccccc2c2cc(-c3nc(-c4ccc(N5CCN(C)CC5)cc4)c(-c4ccc(N5CCN(C)CC5)cc4)n3CCOCCOC(C)=O)ccc21
ΔTm [5]: 10.4 °C

COc1ccc(-n2c(-c3ccc4c(c3)c3ccccc3n4Cc3cn(CCOCCO)nn3)nc(-c3ccc(N4CCN(C)CC4)cc3)c2-c2ccc(N3CCN(C)CC3)cc2)cc1
ΔTm [5]: 13.4 °C

COc1ccc(-n2c(-c3ccc4c(c3)c3ccccc3n4Cc3cn([C@@H]4O[C@H](COC(C)=O)[C@@H](OC(C)=O)[C@H](OC(C)=O)[C@H]4OC(C)=O)nn3)nc(-c3ccc(N4CCN(C)CC4)cc3)c2-c2ccc(N3CCN(C)CC3)cc2)cc1
ΔTm [5]: 13.4 °C

CCn1c2ccccc2c2cc(-c3nc(-c4ccc(N5CCN(C)CC5)cc4)c(-c4ccc(N5CCN(C)CC5)cc4)n3-c3ccc(OCCOCCO[C@@H]4O[C@H](CO)[C@@H](O)[C@H](O)[C@H]4N)cc3)ccc21 (single isomer, unassigned)
Kd [1]: > 20 µM | Kd [2]: > 20 µM | Kd [3]: > 20 µM | Kd [4]: 800 nM | ΔTm [5]: 21.7 °C | Kd [6]: 5.8 µM | Kd [7]: 2.3 µM | Kd [8]: > 20 µM | Kd [9]: 2.3 µM

CCn1c2ccccc2c2cc(-c3nc(-c4ccc(N5CCN(C)CC5)cc4)c(-c4ccc(N5CCN(C)CC5)cc4)n3CCOCCO[C@@H]3O[C@H](CO)[C@@H](O)[C@H](O)[C@H]3O)ccc21 (single isomer, unassigned)
Kd [1]: > 20 µM | Kd [2]: > 20 µM | Kd [3]: > 20 µM | Kd [4]: 3500 nM | ΔTm [5]: 16.3 °C | Kd [6]: > 20 µM | Kd [7]: 13.7 µM | Kd [8]: > 20 µM | Kd [9]: 12.9 µM

CCn1c2ccccc2c2cc(-c3nc(-c4ccc(N5CCN(C)CC5)cc4)c(-c4ccc(N5CCN(Cc6cn([C@@H]7O[C@H](CO)[C@@H](O)[C@H](O)[C@H]7O)nn6)CC5)cc4)[nH]3)ccc21 (single isomer, unassigned)
Kd [1]: > 20 µM | Kd [2]: > 20 µM | Kd [3]: > 20 µM | Kd [4]: 1900 nM | ΔTm [5]: 15.8 °C | Kd [6]: 11.8 µM | Kd [7]: 3.3 µM | Kd [8]: > 20 µM | Kd [9]: 7 µM

CCn1c2ccccc2c2cc(-c3nc(-c4ccc(N5CCN(C)CC5)cc4)c(-c4ccc(N5CCN(C)CC5)cc4)n3-c3ccc(OCCCOC4(C)O[C@H]5O[C@H](CO)[C@@H](O)[C@H](O)[C@H]5O4)cc3)ccc21 (single isomer, unassigned)
ΔTm [5]: 14.6 °C

CCn1c2ccccc2c2cc(-c3nc(-c4ccc(N5CCN(C)CC5)cc4)c(-c4ccc(N5CCN(C)CC5)cc4)n3-c3ccc(OCCCO[C@@H]4O[C@H](COC(C)=O)[C@@H](OC(C)=O)[C@H](OC(C)=O)[C@H]4OC(C)=O)cc3)ccc21 (single isomer, unassigned)
ΔTm [5]: 13.7 °C

CCn1c2ccccc2c2cc(-c3nc(-c4ccc(N5CCN(C)CC5)cc4)c(-c4ccc(N5CCN(C)CC5)cc4)n3-c3ccc(OCCCO[C@@H]4O[C@H](COC(C)=O)[C@H](OC(C)=O)[C@H](OC(C)=O)[C@H]4OC(C)=O)cc3)ccc21 (single isomer, unassigned)
ΔTm [5]: 10.9 °C

CCn1c2ccccc2c2cc(-c3nc(-c4ccc(N5CCN(C)CC5)cc4)c(-c4ccc(N5CCN(C)CC5)cc4)n3-c3ccc(OCCOCCO[C@@H]4O[C@H](COC(C)=O)[C@@H](OC(C)=O)[C@H](OC(C)=O)[C@H]4NC(=O)C(F)(F)F)cc3)ccc21 (single isomer, unassigned)
ΔTm [5]: 14 °C

CCn1c2ccccc2c2cc(-c3nc(-c4ccc(N5CCN(C)CC5)cc4)c(-c4ccc(N5CCN(C)CC5)cc4)n3-c3ccc(OCCOCCO[C@@H]4O[C@H](COC(C)=O)[C@@H](OC(C)=O)[C@H](OC(C)=O)[C@H]4OC(C)=O)cc3)ccc21 (single isomer, unassigned)
ΔTm [5]: 14.2 °C

CCn1c2ccccc2c2cc(-c3nc(-c4ccc(N5CCN(C)CC5)cc4)c(-c4ccc(N5CCN(C)CC5)cc4)n3-c3ccc(OCCOCCO[C@@H]4O[C@H](COC(C)=O)[C@H](OC(C)=O)[C@H](OC(C)=O)[C@H]4OC(C)=O)cc3)ccc21 (single isomer, unassigned)
ΔTm [5]: 12.8 °C

CCn1c2ccccc2c2cc(-c3nc(-c4ccc(N5CCN(C)CC5)cc4)c(-c4ccc(N5CCN(C)CC5)cc4)n3-c3ccc(O[C@@H]4O[C@H](COC(C)=O)[C@@H](OC(C)=O)[C@H](OC(C)=O)[C@H]4OC(C)=O)cc3)ccc21 (single isomer, unassigned)
ΔTm [5]: 10.7 °C

CCn1c2ccccc2c2cc(-c3nc(-c4ccc(N5CCN(C)CC5)cc4)c(-c4ccc(N5CCN(C)CC5)cc4)n3CCOCCO[C@@H]3O[C@H](COC(C)=O)[C@@H](OC(C)=O)[C@H](OC(C)=O)[C@H]3OC(C)=O)ccc21 (single isomer, unassigned)
ΔTm [5]: 11.4 °C

CCn1c2ccccc2c2cc(-c3nc(-c4ccc(N5CCN(C)CC5)cc4)c(-c4ccc(N5CCN(C)CC5)cc4)n3CCOCCO[C@@H]3O[C@H](COC(C)=O)[C@H](OC(C)=O)[C@H](OC(C)=O)[C@H]3OC(C)=O)ccc21 (single isomer, unassigned)
ΔTm [5]: 10.3 °C

CCn1c2ccccc2c2cc(-c3nc(-c4ccc(N5CCN(C)CC5)cc4)c(-c4ccc(N5CCN(C)CC5)cc4)n3CCOCCO[C@H]3OC(CO)C(O)[C@@H](O)[C@@H]3O)ccc21 (single isomer, unassigned)
ΔTm [5]: 14.9 °C

CCn1c2ccccc2c2cc(-c3nc(-c4ccc(N5CCN(C)CC5)cc4)c(-c4ccc(N5CCN(C)CC5)cc4)n3CCO[C@@H]3O[C@H](CO)[C@@H](O)[C@H](O)[C@H]3O)ccc21 (single isomer, unassigned)
ΔTm [5]: 14.7 °C

CCn1c2ccccc2c2cc(-c3nc(-c4ccc(N5CCN(C)CC5)cc4)c(-c4ccc(N5CCN(C)CC5)cc4)n3CCO[C@@H]3O[C@H](CO)[C@H](O)[C@H](O)[C@H]3O)ccc21 (single isomer, unassigned)
ΔTm [5]: 11.3 °C

CCn1c2ccccc2c2cc(-c3nc(-c4ccc(N5CCN(C)CC5)cc4)c(-c4ccc(N5CCN(C)CC5)cc4)n3CCO[C@@H]3O[C@H](COC(C)=O)[C@@H](OC(C)=O)[C@H](OC(C)=O)[C@H]3OC(C)=O)ccc21 (single isomer, unassigned)
ΔTm [5]: 7.1 °C

CCn1c2ccccc2c2cc(-c3nc(-c4ccc(N5CCN(C)CC5)cc4)c(-c4ccc(N5CCN(C)CC5)cc4)n3CCO[C@@H]3O[C@H](COC(C)=O)[C@H](OC(C)=O)[C@H](OC(C)=O)[C@H]3OC(C)=O)ccc21 (single isomer, unassigned)
ΔTm [5]: 9.3 °C

CCn1c2ccccc2c2cc(-c3nc(-c4ccc(N5CCN(C)CC5)cc4)c(-c4ccc(N5CCN(Cc6cn([C@@H]7O[C@H](COC(C)=O)[C@@H](OC(C)=O)[C@H](OC(C)=O)[C@H]7OC(C)=O)nn6)CC5)cc4)[nH]3)ccc21 (single isomer, unassigned)
ΔTm [5]: 15.4 °C

CCn1c2ccccc2c2cc(-c3nc(-c4ccc(N5CCN(C)CC5)cc4)c(-c4ccc(N5CCN(Cc6cn([C@@H]7O[C@H](COC(C)=O)[C@H](OC(C)=O)[C@H](OC(C)=O)[C@H]7OC(C)=O)nn6)CC5)cc4)[nH]3)ccc21 (single isomer, unassigned)
ΔTm [5]: 15.1 °C

COc1ccc(-n2c(-c3ccc4c(c3)c3ccccc3n4Cc3cn([C@@H]4O[C@H](CO)[C@@H](O)[C@H](O)[C@H]4O)nn3)nc(-c3ccc(N4CCN(C)CC4)cc3)c2-c2ccc(N3CCN(C)CC3)cc2)cc1 (single isomer, unassigned)
ΔTm [5]: 10.3 °C

COc1ccc(-n2c(-c3ccc4c(c3)c3ccccc3n4Cc3cn([C@@H]4O[C@H](CO)[C@H](O)[C@H](O)[C@H]4O)nn3)nc(-c3ccc(N4CCN(C)CC4)cc3)c2-c2ccc(N3CCN(C)CC3)cc2)cc1 (single isomer, unassigned)
ΔTm [5]: 12.4 °C

COc1ccc(-n2c(-c3ccc4c(c3)c3ccccc3n4Cc3cn([C@@H]4O[C@H](COC(C)=O)[C@H](OC(C)=O)[C@H](OC(C)=O)[C@H]4OC(C)=O)nn3)nc(-c3ccc(N4CCN(C)CC4)cc3)c2-c2ccc(N3CCN(C)CC3)cc2)cc1 (single isomer, unassigned)
ΔTm [5]: 13.3 °C
